Data from patent publication US10633389B2, “CARM1 inhibitors and uses thereof” (Epizyme, Inc., priority 2013, dated 2020).

Test system: asymmetric di-methyl PABP1 in RKO cells
Experiment: RKO methylation assay, In Cell Western (ICW) for asymmetric di-methyl PABP1
Format: cell-based
Conditions: Homo sapiens, RKO, Cellular potencies, ICW PABP1me2a
How it was run: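 In-cell Western on fixed RKO cells after 48 h compound exposure: anti-asymmetric di-methyl PABP1 signal at 800 nm over DRAQ5 DNA signal at 700 nm. Percent inhibition set between DMSO wells and wells with 20 μM reference compound; IC50 curves fitted in triplicate.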

Row | Structure (SMILES) | IC50
1 | CNCC(O)COc1cccc(-c2nc(-c3c(C)noc3C)c(C)c(N3CC[C@H](C(=O)N(C)C)C3)n2)c1 (some centres unmarked) [Example 162-1a] | < 5 µM
2 | CNCC(O)COc1cc(O)cc(-c2nc(NC3CCOCC3)c(C)c(-c3c(C)noc3C)n2)c1 (centres unmarked) [Example 76-1a] | 10 to 20 µM
3 | CNCC(O)COc1cc(OC)cc(-c2nc(NC3CCOCC3)c(C)c(-c3c(C)noc3C)n2)c1 (centres unmarked) [Example 75-1a] | < 5 µM
4 | CNCC(O)COc1cccc(-c2nc(N[C@@H]3CCOC3)cc(-c3c(C)noc3C)n2)c1 (some centres unmarked) [Example 11-1a] | 5 to 10 µM
5 | CNCC(O)COc1cccc(-c2nc(-c3c(C)noc3C)cc(N3CCN(C(=O)N(C)C)CC3)n2)c1 (centres unmarked) [Example 120-1a] | < 5 µM
6 | CNCC(O)COc1cccc(-c2nc(-c3c(C)noc3C)cc(N(CCOC)C3CCOCC3)n2)c1 (centres unmarked) [Example 98-1a] | < 5 µM
7 | CNC[C@H](O)COc1ccc(F)c(-c2nc(N[C@H]3CCN(C(=O)OC)C[C@H]3F)c(C)c(-c3c(C)noc3C)n2)c1 [Example 63-3] | < 5 µM
8 | CCOC(=O)N1CCOC[C@H]1CNc1nc(-c2cc(OC[C@@H](O)CNC)ccc2F)nc(-c2c(C)noc2C)c1C [Example 59-3] | < 5 µM
9 | CNCC(O)COc1cccc(-c2nc(NC3CCOCC3)c(C)c(-c3c(C)noc3C)n2)c1 (centres unmarked) [Example 6-1a] | < 5 µM
10 | CCOC(=O)N1CCOC[C@H]1CNc1nc(-c2cc(OC[C@H](O)CNC)ccc2Cl)nc(-c2c(C)noc2C)c1C [Example 25-3] | < 5 µM
11 | CNC[C@@H](O)COc1ccc(Cl)c(-c2nc(N[C@H]3CCO[C@H](C)C3)c(C)c(-c3c(C)noc3C)n2)c1 [Example 196-3] | < 5 µM
12 | CNCC(O)COc1cccc(-c2nc(-c3c(C)noc3C)c(C)c(N3CCO[C@H](CNC)C3)n2)c1 (some centres unmarked) [Example 124-1a] | 5 to 10 µM
13 | CCOC(=O)N1CCOC[C@@H]1CNc1nc(-c2cccc(OC[C@H](O)CNC)c2)nc(-c2c(C)noc2C)c1C [Example 277-1a] | < 5 µM
14 | CNC[C@@H](O)COc1ccc(Cl)c(-c2nc(NC3CCN(C)CC3(F)F)c(C)c(-c3c(C)noc3C)n2)c1 (some centres unmarked) [Example 258-3] | < 5 µM
15 | CNC[C@@H](O)COc1ccc(Cl)c(-c2nc(N[C@H]3CCOC3)c(C)c(-c3c(C)noc3C)n2)c1 [Example 111-3] | < 5 µM
16 | CNCC(O)COc1cccc(-c2nc(NC3CCOC3)c(C)c(N3CCN(CCF)CC3)n2)c1 (centres unmarked) [Example 446-1a] | < 5 µM
17 | CNCC(O)COc1cccc(-c2nc(NC3CCN(C(=O)OC)CC3)c(C)c(-c3c(C)noc3C)n2)c1 (centres unmarked) [Example 118-1a] | < 5 µM
18 | CCNC(=O)N1CCN(c2nc(-c3cccc(OCC(O)CNC)c3)nc(-c3c(C)noc3C)c2C)CC1 (centres unmarked) [Example 106-1a] | 5 to 10 µM
19 | CNC[C@@H](O)COc1ccc(Cl)c(-c2nc(-c3c(C)noc3C)c(C)c(N3Cc4cnc(C(C)C)nc4C3)n2)c1 [Example 264-3] | < 5 µM
20 | CCO[C@@H]1CCC[C@@H]1Nc1nc(-c2cc(OC[C@H](O)CNC)ccc2Cl)nc(-c2c(C)noc2C)c1C [Example 253-3] | < 5 µM
21 | CNCC(O)COc1cccc(-c2nc(-c3c(C)noc3C)c(C)c(N3CCS(=O)(=O)CC3)n2)c1 (centres unmarked) [Example 57-1a] | 10 to 20 µM
22 | C=C(C)c1cc(N(C)C2CCOCC2)nc(-c2cc(Cl)cc(OCC(O)CNC)c2)n1 (centres unmarked) [Example 619-1a] | 10 to 20 µM
23 | CNCC(O)COc1cccc(-c2nc(OCC3CCN(CC(F)F)CC3)c(C)c(-c3c(C)noc3C)n2)c1 (centres unmarked) [Example 288-1a] | < 5 µM
24 | CNCC(O)COc1cccc(-c2nc(N[C@@H]3CCOC3)c(C)c(N3CCC(OC)CC3)n2)c1 (some centres unmarked) [Example 370-1a] | 5 to 10 µM
25 | CNCC(O)COc1cccc(-c2nc(N[C@@H]3CCOC3)c(C)c(-c3cncnc3)n2)c1 (some centres unmarked) [Example 350-1a] | 10 to 20 µM
26 | CNCC(O)COc1cccc(-c2nc(-c3c(C)noc3C)cc(N3CCN(CCF)[C@@H](C)C3)n2)c1 (some centres unmarked) [Example 103-1a] | < 5 µM
27 | CNCC(O)COc1cccc(-c2nc(-c3c(C)noc3C)cc(N3CCN(n4c(C)nnc4C)CC3)n2)c1 (centres unmarked) [Example 165-1a] | < 5 µM
28 | CNCC(O)COc1cccc(-c2nc(-c3c(C)noc3C)cc(N3CCNC(C(=O)O)C3)n2)c1 (centres unmarked) [Example 29-1a] | 10 to 20 µM
29 | CNCC(O)COc1cc(Cl)cc(-c2nc(-c3ccncc3)c(C3CC3)c(N(C)C3CCOCC3)n2)c1 (centres unmarked) [Example 574-1a] | 10 to 20 µM

Now from value to molecule:

Row | IC50 | Structure (SMILES)
30 | 5 to 10 µM | CNCC(O)COc1cccc(-c2nc(N[C@@H]3CCOC3)c(C)c(N3CCC(N4CCOCC4)CC3)n2)c1 (some centres unmarked) [Example 367-1a]
31 | < 5 µM | CNC[C@@H](O)COc1ccc(Cl)c(-c2nc(N[C@@H]3CO[C@@H](C)C3)c(C)c(-c3c(C)noc3C)n2)c1 [Example 162-3]
32 | 10 to 20 µM | CNCC(O)COc1cccc(-c2nc(NC3CCOC3)c(C)c(N3CC(N)CC(Cl)C3)n2)c1 (centres unmarked) [Example 442-1a]
33 | < 5 µM | CNC[C@@H](O)COc1ccc(Cl)c(-c2nc(N[C@@H]3CCN(C(=O)OC)[C@H](C)C3)c(C)c(-c3c(C)noc3C)n2)c1 [Example 135-3]
34 | 10 to 20 µM | CNCC(O)COc1cccc(-c2nc(C(=O)NC3CCN(C)CC3)cc(-c3c(C)noc3C)n2)c1 (centres unmarked) [Example 160-1a]
35 | < 5 µM | CNCC(O)COc1cccc(-c2nc(-c3c(C)noc3C)c(C)c(N(C)C)n2)c1 (centres unmarked) [Example 308-1a]
36 | < 5 µM | CNCC(O)COc1cccc(-c2nc(-c3c(C)noc3C)c(C)c(N3CCO[C@@H](CN(C)C(=O)OC)C3)n2)c1 (some centres unmarked) [Example 149-1a]
37 | < 5 µM | CNCC(O)COc1cccc(-c2nc(-c3scnc3C)cc(N(C)C3CCOCC3)n2)c1 (centres unmarked) [Example 495-1a]
38 | < 5 µM | CNC[C@@H](O)COc1cccc(-c2nc(-c3cn(S(C)(=O)=O)c4ncncc34)c(C)c(N(C)C3CCOCC3)n2)c1 [Example 488-1a]
39 | < 5 µM | CNCC(O)COc1cccc(-c2nc(NC3CCN(C(=O)OC)C3)c(C)c(-c3c(C)noc3C)n2)c1 (centres unmarked) [Example 186-1a]
40 | < 5 µM | CNC[C@@H](O)COc1ccc(Cl)c(-c2nc(-c3c(C)noc3C)cc(N3Cc4cnn(C)c4C3)n2)c1 [Example 250-3]
41 | 10 to 20 µM | CNCC(O)COc1cccc(-c2nc(NCC3(O)CCOCC3)c(C)c(-c3c(C)noc3C)n2)c1 (centres unmarked) [Example 114-1a]
42 | < 5 µM | CNCC(O)COc1cccc(-c2nc(-c3c(C)noc3C)cc(N3CCN(C4CCOCC4)CC3)n2)c1 (centres unmarked) [Example 166-1a]
43 | < 5 µM | CNCC(O)COc1cccc(-c2nc(N[C@@H]3CCN(C(=O)OC)C[C@H]3F)c(C)c(-c3c(C)noc3C)n2)c1 (some centres unmarked) [Example 228-1a]
44 | < 5 µM | CNCC(O)COc1cccc(-c2nc(N[C@H]3C[C@@H](C(C)(C)O)C3)c(C)c(-c3c(C)noc3C)n2)c1 (some centres unmarked) [Example 232-1a]
45 | 10 to 20 µM | CNCC(O)COc1cccc(-c2nc(-c3cnn(CC(C)C)c3)cc(N(C)CCC#N)n2)c1 (centres unmarked) [Example 41-1]
46 | 10 to 20 µM | CNCC(O)COc1cccc(-c2nc(-c3c(C)noc3C)cc(N3CCN(C)CC3)n2)c1 (centres unmarked) [Example 19-1a]
47 | < 5 µM | CNCC(O)COc1cccc(-c2nc(N[C@H]3C[C@H](O)C3)c(C)c(-c3c(C)noc3C)n2)c1 (some centres unmarked) [Example 254-1a]
48 | < 5 µM | CNCC(O)COc1cccc(-c2nc(OCC3CCN(C(=O)OC)CC3)c(C)c(-c3c(C)noc3C)n2)c1 (centres unmarked) [Example 284-1a]
49 | < 5 µM | CNC[C@@H](O)COc1cccc(-c2nc(-c3cnc4cnccn34)cc(N(C)C3CCOCC3)n2)c1 [Example 507-1a]
50 | < 5 µM | CNCC(O)COc1cccc(-c2nc(-c3c(C)noc3C)c(C)c(N3CCC4(CC3)CN(C(=O)N(C)C)C4)n2)c1 (centres unmarked) [Example 252-1a]
